What was measured:
[1] = molecular target: Protein kinase C eta type (Homo sapiens, UniProt P24723); assay: Binding affinity to recombinant full-length N-terminal His-FLAG-GST-tagged PRKCH (unknown origin) expressed in baculovirus infected Sf9 insect cells incubated for 1 hr by TR-FRET assay
[2] = molecular target: Epithelial discoidin domain-containing receptor 1 (Homo sapiens, UniProt Q08345); assay: Binding affinity to recombinant N-terminal His-FLAG-GST-tagged DDR1 (unknown origin) (444 to 876 residues) expressed in baculovirus infected Sf9 insect cells incubated for 1 hr by TR-FRET assay
[3] = molecular target: Mitogen-activated protein kinase kinase kinase 9 (Homo sapiens, UniProt P80192); assay: Binding affinity to recombinant N-terminal His-FLAG-GST-tagged MAP3K9 (unknown origin) (110 to 422 residues) expressed in baculovirus infected Sf9 insect cells incubated for 1 hr by TR-FRET assay
[4] = molecular target: Serine/threonine-protein kinase MRCK alpha (Homo sapiens, UniProt Q5VT25); assay: Binding affinity to recombinant full-length N-terminal His-FLAG-GST-tagged CDC42BPA (unknown origin) (1 to 574 residues) expressed in baculovirus infected Sf9 insect cells incubated for 1 hr by TR-FRET assay
[5] = molecular target: Protein kinase C theta type (Homo sapiens, UniProt Q04759); assay: Binding affinity to recombinant full-length N-terminal His-GST-tagged PRKCQ (unknown origin) expressed in baculovirus infected Sf9 insect cells incubated for 1 hr by TR-FRET assay
[6] = molecular target: ALK tyrosine kinase receptor (Homo sapiens, UniProt Q9UM73); assay: Binding affinity to recombinant human […] N-terminal GST-tagged ALK (1058 to 1620 residues) expressed in baculovirus expression system using Srctide as substrate incubated for 1 hr by TR-FRET assay
[7] = molecular target: Platelet-derived growth factor receptor beta (Homo sapiens, UniProt P09619); assay: Binding affinity to recombinant human N-terminal his-tagged PDGFRB (558 to 1106 residues) expressed in baculovirus expression system incubated for 1 hr by TR-FRET assay
[8] = molecular target: Cyclin-C/Cyclin-dependent kinase 19 (Homo sapiens, UniProt Q9BWU1); assay: Binding affinity to recombinant human full length N-terminal GST-tagged CDK19 co-expressed with N-terminal GST-tagged CyclinC expressed in baculovirus expression system using RNA polymerase peptide as substrate incubated for 1 hr by TR-FRET assay
[9] = molecular target: MAP/microtubule affinity-regulating kinase 3 (Homo sapiens, UniProt P27448); assay: Binding affinity to recombinant full-length N-terminal His-FLAG-GST-tagged MARK3 (unknown origin) expressed in baculovirus infected Sf9 insect cells incubated for 1 hr by TR-FRET assay
[10] = molecular target: Dual specificity mitogen-activated protein kinase kinase 1 (Homo sapiens, UniProt Q02750); assay: Binding affinity to recombinant full-length N-terminal His-FLAG-tagged MAP2K1 (unknown origin) expressed in baculovirus infected Sf9 insect cells incubated for 1 hr by TR-FRET assay
[11] = molecular target: Dual specificity tyrosine-phosphorylation-regulated kinase 1B (Homo sapiens, UniProt Q9Y463); assay: Binding affinity to recombinant full-length N-terminal His-FLAG-tagged DYRK1B (unknown origin) expressed in baculovirus infected Sf9 insect cells incubated for 1 hr by TR-FRET assay
[12] = molecular target: AP2-associated protein kinase 1 (Homo sapiens, UniProt Q2M2I8); assay: Binding affinity to recombinant full-length N-terminal His-FLAG-GST-tagged AAK1 (unknown origin) expressed in baculovirus infected Sf9 insect cells incubated for 1 hr by TR-FRET assay
[13] = molecular target: Interleukin-1 receptor-associated kinase 4 (Homo sapiens, UniProt Q9NWZ3); assay: Binding affinity to recombinant full-length human N-terminal his-tagged IRAK4 expressed in baculovirus expression system using IRAK1 peptide as substrate incubated for 1 hr by TR-FRET assay
[14] = molecular target: CDK9/cyclin T1 (Homo sapiens, UniProt P50750); assay: Binding affinity to recombinant human full length N-terminal GST-tagged CDK9 co-expressed with full length N-terminal His-tagged CyclinT1 expressed in baculovirus expression system using CDK9 substrate incubated for 1 hr by TR-FRET assay
[15] = molecular target: Serine/threonine-protein kinase 16 (Homo sapiens, UniProt O75716); assay: Binding affinity to recombinant full-length N-terminal His-FLAG-GST-tagged STK16 (unknown origin) expressed in baculovirus infected Sf9 insect cells incubated for 1 hr by TR-FRET assay
[16] = molecular target: Tyrosine-protein kinase Fyn (Homo sapiens, UniProt P06241); assay: Binding affinity to recombinant full-length N-terminal His-FLAG-tagged FYN (unknown origin) expressed in baculovirus infected Sf9 insect cells incubated for 1 hr by TR-FRET assay
[17] = molecular target: Serine/threonine-protein kinase 32A (Homo sapiens, UniProt Q8WU08); assay: Binding affinity to recombinant full-length N-terminal His-FLAG-tagged STK32A (unknown origin) expressed in baculovirus infected Sf9 insect cells incubated for 1 hr by TR-FRET assay
[18] = molecular target: Serine/threonine-protein kinase PLK4 (Homo sapiens, UniProt O00444); assay: Binding affinity to recombinant full-length N-terminal His-FLAG-GST-tagged PLK4 (unknown origin) (1 to 836 residues) expressed in baculovirus infected Sf9 insect cells incubated for 1 hr by TR-FRET assay
[19] = molecular target: Mitogen-activated protein kinase kinase kinase 14 (Homo sapiens, UniProt Q99558); assay: Binding affinity to recombinant N-terminal His-FLAG-GST-tagged MAP3K14 (unknown origin) (319 to 947 residues) expressed in baculovirus infected Sf9 insect cells incubated for 1 hr by TR-FRET assay
[20] = molecular target: Ribosomal protein S6 kinase alpha-5 (Homo sapiens, UniProt O75582); assay: Binding affinity to recombinant full-length N-terminal His-FLAG-GST-tagged RPS6KA5 (unknown origin) expressed in baculovirus infected Sf9 insect cells incubated for 1 hr by TR-FRET assay
[21] = molecular target: Ephrin type-A receptor 7 (Homo sapiens, UniProt Q15375); assay: Binding affinity to recombinant N-terminal His-FLAG-GST-tagged EPHA7 (unknown origin) ( 595 to 998 residues) expressed in baculovirus infected Sf9 insect cells incubated for 1 hr by TR-FRET assay
[22] = molecular target: Mitogen-activated protein kinase 8 (Homo sapiens, UniProt P45983); assay: Binding affinity to recombinant N-terminal His-FLAG-GST-tagged MAPK8 (unknown origin) (2 to 364 residues) expressed in baculovirus infected Sf9 insect cells incubated for 1 hr by TR-FRET assay
[23] = molecular target: Mitogen-activated protein kinase 10 (Homo sapiens, UniProt P53779); assay: Binding affinity to recombinant full-length N-terminal His-FLAG-GST-tagged MAPK10 (unknown origin) expressed in baculovirus infected Sf9 insect cells incubated for 1 hr by TR-FRET assay
[24] = molecular target: Tyrosine-protein kinase receptor TYRO3 (Homo sapiens, UniProt Q06418); assay: Binding affinity to recombinant full-length N-terminal His-FLAG-GST-tagged TYRO3 (unknown origin) expressed in baculovirus infected Sf9 insect cells incubated for 1 hr by TR-FRET assay

Chain of Serine/threonine-protein kinase 32A (Q8WU08 whole entry, the tested form may be a part): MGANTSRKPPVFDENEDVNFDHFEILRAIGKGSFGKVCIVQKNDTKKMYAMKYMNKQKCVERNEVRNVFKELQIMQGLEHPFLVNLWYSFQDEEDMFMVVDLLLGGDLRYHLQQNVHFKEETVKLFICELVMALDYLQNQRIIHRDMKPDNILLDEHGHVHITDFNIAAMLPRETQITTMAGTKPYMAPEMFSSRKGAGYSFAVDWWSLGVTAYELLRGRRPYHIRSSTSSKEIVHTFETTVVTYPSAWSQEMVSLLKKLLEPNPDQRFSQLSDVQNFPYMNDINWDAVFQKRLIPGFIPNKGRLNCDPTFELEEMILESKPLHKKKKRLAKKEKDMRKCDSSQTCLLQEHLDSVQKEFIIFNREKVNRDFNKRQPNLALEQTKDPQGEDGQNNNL
Chain of ALK tyrosine kinase receptor (Q9UM73 whole entry, the tested form may be a part): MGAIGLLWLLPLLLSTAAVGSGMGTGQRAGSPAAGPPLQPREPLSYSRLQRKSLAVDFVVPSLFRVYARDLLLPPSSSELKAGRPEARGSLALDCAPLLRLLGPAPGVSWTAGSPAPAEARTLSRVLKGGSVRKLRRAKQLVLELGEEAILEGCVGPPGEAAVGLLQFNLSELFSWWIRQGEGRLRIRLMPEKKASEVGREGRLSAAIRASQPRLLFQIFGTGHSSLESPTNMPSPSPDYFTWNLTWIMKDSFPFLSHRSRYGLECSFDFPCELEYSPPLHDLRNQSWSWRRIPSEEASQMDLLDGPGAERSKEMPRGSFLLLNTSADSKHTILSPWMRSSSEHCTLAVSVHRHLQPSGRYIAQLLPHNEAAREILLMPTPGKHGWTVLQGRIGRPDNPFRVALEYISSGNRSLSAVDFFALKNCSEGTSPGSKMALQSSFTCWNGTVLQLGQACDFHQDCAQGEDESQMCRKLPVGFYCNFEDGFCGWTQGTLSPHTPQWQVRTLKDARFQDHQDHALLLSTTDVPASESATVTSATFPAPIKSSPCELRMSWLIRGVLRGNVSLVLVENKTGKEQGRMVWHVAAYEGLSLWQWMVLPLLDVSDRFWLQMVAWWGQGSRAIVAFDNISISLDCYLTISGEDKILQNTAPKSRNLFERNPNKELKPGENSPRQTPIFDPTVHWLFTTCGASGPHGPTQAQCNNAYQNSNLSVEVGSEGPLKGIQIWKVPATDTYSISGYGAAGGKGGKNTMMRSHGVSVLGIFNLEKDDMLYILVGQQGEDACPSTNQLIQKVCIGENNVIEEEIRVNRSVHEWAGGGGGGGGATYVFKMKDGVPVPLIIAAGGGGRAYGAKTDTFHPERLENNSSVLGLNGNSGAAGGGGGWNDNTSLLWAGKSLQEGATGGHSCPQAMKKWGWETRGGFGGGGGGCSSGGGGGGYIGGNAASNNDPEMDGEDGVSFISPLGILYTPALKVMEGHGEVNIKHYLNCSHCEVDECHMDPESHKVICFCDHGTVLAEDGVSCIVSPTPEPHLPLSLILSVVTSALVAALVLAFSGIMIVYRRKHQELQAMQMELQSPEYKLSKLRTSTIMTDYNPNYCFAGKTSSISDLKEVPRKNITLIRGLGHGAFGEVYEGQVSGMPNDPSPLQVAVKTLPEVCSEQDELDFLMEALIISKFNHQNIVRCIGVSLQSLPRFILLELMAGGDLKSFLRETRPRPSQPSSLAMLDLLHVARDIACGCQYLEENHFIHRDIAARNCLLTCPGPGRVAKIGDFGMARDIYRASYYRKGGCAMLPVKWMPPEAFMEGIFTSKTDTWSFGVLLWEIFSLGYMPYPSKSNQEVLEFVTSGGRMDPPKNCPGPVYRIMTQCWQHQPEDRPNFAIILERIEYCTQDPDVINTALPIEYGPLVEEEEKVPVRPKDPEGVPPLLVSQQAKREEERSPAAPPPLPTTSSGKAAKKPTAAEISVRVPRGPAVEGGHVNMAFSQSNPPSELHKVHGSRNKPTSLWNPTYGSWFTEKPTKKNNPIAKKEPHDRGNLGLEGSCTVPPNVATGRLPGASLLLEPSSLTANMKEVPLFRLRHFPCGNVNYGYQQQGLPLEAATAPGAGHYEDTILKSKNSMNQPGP
Chain of Ephrin type-A receptor 7 (Q15375 whole entry, the tested form may be a part): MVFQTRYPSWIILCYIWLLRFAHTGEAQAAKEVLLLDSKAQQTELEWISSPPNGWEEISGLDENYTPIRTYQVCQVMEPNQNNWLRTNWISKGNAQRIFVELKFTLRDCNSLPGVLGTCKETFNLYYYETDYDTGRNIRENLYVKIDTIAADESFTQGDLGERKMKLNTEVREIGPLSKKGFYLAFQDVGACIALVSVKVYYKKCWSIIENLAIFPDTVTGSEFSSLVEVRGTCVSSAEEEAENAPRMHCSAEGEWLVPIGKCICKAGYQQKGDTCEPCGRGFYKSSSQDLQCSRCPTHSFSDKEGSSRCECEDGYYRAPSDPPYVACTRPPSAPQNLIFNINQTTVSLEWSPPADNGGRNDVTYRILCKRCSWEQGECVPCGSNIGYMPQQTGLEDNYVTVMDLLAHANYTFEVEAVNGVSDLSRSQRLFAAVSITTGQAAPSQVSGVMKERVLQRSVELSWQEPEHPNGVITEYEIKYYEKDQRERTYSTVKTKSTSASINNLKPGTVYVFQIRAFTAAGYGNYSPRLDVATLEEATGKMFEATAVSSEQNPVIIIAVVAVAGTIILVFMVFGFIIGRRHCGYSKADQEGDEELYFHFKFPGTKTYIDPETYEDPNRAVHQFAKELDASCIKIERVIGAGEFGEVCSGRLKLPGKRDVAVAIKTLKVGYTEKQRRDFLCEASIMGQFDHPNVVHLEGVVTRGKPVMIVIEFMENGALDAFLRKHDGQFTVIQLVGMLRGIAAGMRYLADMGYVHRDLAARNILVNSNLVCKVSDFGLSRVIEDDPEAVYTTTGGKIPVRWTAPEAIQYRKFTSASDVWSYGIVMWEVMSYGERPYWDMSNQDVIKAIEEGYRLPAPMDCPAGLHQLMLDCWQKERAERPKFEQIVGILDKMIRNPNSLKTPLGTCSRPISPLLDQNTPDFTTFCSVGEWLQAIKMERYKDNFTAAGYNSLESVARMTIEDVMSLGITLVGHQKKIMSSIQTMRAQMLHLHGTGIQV
Chain of Mitogen-activated protein kinase kinase kinase 9 (P80192 whole entry, the tested form may be a part): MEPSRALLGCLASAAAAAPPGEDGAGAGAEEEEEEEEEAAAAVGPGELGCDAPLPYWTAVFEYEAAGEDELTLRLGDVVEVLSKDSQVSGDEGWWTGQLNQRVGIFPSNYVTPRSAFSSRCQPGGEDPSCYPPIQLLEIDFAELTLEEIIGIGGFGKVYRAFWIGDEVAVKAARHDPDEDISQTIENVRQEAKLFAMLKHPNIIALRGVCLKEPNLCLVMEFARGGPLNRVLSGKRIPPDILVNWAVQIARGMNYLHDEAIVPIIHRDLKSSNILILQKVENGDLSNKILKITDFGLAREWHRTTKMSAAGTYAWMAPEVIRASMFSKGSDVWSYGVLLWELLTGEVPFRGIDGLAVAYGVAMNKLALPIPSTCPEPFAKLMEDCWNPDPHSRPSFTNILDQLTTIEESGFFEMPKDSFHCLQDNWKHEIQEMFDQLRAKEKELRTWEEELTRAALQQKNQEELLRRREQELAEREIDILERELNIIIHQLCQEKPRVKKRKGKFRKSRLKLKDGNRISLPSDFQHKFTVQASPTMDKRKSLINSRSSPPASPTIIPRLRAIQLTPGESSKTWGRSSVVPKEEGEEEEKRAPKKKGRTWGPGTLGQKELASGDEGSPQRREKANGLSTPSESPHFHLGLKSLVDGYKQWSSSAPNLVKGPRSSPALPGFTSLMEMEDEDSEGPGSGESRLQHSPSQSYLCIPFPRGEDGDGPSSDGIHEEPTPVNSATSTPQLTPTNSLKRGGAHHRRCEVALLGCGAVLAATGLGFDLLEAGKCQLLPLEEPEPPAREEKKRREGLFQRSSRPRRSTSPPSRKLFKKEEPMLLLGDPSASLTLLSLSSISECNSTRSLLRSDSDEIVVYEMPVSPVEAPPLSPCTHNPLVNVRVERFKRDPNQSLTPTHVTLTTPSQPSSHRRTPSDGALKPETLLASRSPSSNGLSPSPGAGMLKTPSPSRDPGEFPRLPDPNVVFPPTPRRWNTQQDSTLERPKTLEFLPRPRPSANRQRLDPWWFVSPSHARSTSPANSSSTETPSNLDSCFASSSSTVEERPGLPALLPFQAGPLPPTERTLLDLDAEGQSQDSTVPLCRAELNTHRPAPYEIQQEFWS
Chain of Mitogen-activated protein kinase kinase kinase 14 (Q99558 whole entry, the tested form may be a part): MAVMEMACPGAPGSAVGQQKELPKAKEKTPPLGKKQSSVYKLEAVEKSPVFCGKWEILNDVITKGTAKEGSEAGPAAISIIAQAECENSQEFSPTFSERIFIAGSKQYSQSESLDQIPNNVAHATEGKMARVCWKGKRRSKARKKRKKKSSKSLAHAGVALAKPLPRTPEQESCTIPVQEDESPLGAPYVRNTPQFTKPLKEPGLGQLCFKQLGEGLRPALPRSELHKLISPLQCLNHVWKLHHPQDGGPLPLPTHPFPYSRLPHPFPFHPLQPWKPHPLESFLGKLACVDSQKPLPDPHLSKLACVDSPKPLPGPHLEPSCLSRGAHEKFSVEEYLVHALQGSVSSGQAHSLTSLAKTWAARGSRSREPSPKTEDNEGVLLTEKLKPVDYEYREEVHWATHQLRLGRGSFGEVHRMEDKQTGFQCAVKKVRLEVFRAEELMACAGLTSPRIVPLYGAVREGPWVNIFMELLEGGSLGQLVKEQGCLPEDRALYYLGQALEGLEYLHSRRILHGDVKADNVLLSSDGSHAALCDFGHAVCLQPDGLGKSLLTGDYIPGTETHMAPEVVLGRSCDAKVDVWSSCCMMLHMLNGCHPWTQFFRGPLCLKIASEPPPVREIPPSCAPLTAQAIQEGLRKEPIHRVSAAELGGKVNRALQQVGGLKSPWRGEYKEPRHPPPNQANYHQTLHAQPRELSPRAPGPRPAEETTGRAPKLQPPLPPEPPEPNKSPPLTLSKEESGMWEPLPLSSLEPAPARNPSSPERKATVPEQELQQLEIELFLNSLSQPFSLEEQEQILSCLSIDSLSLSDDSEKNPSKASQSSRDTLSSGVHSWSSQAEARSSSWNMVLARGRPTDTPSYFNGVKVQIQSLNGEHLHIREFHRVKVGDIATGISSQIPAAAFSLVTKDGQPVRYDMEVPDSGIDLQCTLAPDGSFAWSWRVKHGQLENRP

SMILES | Kd [1] [nM] | Kd [2] [nM] | Kd [3] [nM] | Kd [4] [nM] | Kd [5] [nM] | Kd [6] [nM] | Kd [7] [nM] | Kd [8] [nM] | Kd [9] [nM] | Kd [10] [nM] | Kd [11] [nM] | Kd [12] [nM] | Kd [13] [nM] | Kd [14] [nM] | Kd [15] [nM] | Kd [16] [nM] | Kd [17] [nM] | Kd [18] [nM] | Kd [19] [nM] | Kd [20] [nM] | also measured
CO[C@@H]1[C@H](NCCOCCOCCOCCNC(=O)CCC2=[N+]3C(=Cc4c(C)cc(C)n4[B-]3(F)F)C=C2)C[C@H]2O[C@]1(C)n1c3ccccc3c3c4c(c5c6ccccc6n2c5c31)C(=O)NC4 | 61 | 674 | 2 | 43 | 28 | 230 | 165 | 259 | 13 | 328 | 107 | 6 | 23 | 162 | 365 | 267 | 1540 | 33 | 352 | 345 | Kd [21]: 766 nM; Kd [22]: 286 nM; Kd [23]: 315 nM; Kd [24]: 531 nM
CO[C@@H]1[C@H](N(C)CCOCCOCCOCCNC(=O)CCC2=[N+]3C(=Cc4c(C)cc(C)n4[B-]3(F)F)C=C2)C[C@H]2O[C@]1(C)n1c3ccccc3c3c4c(c5c6ccccc6n2c5c31)C(=O)NC4 | 37 | 888 | 3 | 25 | 19 | 172 | 257 | 125 | 6 | 428 | 40 | 5 | 75 | 116 | 110 | 322 | 1750 | 20 | 445 | 249 | Kd [21]: 887 nM; Kd [22]: 536 nM; Kd [23]: 245 nM; Kd [24]: 1050 nM
